{"source": "patent US11590154B2", "about": "“Triple antibiotic fixed-dose combination products, dosing regimen, methods, and kits for treating pulmonary non-tuberculosis mycobacterial infections” (priority 2020, dated 2023)", "key": {"MAC bacteria": {"test_system": "MAC bacteria", "assay_type": "cell-based, Mycobacterium avium complex", "conditions": "2×MIC; starting inoculum 5.5 log10 CFU/ml", "method": "In vitro, efficacy was studied in static time-kill kinetics assays (at 2×minimum inhibitory concentration [MIC]), intended to mirror a desired peak serum concentration for all three antibiotics using an established assay. All experiments were performed with a starting inoculum of 5.5 log10 CFU/ml MAC bacteria, higher than the bacterial load expected in the airway secretions of patients with mild nodular-bronchiectatic disease due to MAC."}, "MAC [1]": {"test_system": "MAC", "experiment": "MIC of the MAC strains used in the HFS-MAC studies", "assay_type": "cell-based, Mycobacterium avium complex", "conditions": "Mycobacterium avium", "method": "The MAC strain used in the HFS-MAC studies was ATCC strain 700898. The study center also had 5 well-characterized clinical strains that have undergone whole-genome sequencing and habituation to the HFS-MAC. Stock cultures of MAC were stored at −80° C. in Middlebrook 7H9 broth with 10% OADC and 10% glycerol. THP-1 monocytes were stored in liquid nitrogen and have been habituated for the HFS-MAC growth conditions."}, "[2]": {"test_system": "intracellular MAC in THP-1 monocytes", "experiment": "Hollow fiber system model of MAC (HFS-MAC): microbial kill", "assay_type": "cell-based, Mycobacterium avium complex", "conditions": "HF experiments", "protocol": "The anti-mycobacterial effects of CLR, CFZ, and RFB was evaluated in the hollow fiber system model of MAC (HFS-MAC), which recapitulates the intrapulmonary concentrations of these antibiotics. The HFS-MAC allows for an assessment of the contribution of individual drug components in terms of anti-mycobacterial effects and enables exploration of potential synergy, additivity, or antagonism of different doses of drugs and combination regimens on the log-phase growth of intracellular MAC, for both microbial kill and resistance suppression.\nA two-part investigation was conducted to assess the contribution of components of various FDC products comprising CLR, CFZ, and RFB in terms of depth and rate of MAC kill and suppression of the emergence of resistance. The anti-MAC activity of each antibiotic component was evaluated as one-drug alone; as two-drug combinations and the three-drug combination. For each combination (singlet, doublet or triplet), the drug concentrations were sampled from the HF fluid bathing MAC-infected cells. […] Anti-MAC activity was evaluated by kill slopes defined as the kill rate constant (and the half-life of kill [reciprocal of the kill rate constant]) as well as the maximum kill, defined as the maximum reduction in MAC CFUs and compared between the different antibiotic combinations.\nMAC was grown into log-phase for 4 days, parallel with cultivation of THP-1 monocytes. The THP-1 cells were then infected with MAC overnight at a multiplicity of infection of 1:1. The THP-1 cells were washed to remove extracellular bacteria, and 20 mL of 1×10^6 (6.0 log10) cells/mL were inoculated into each HFS-MAC on Study Day 0. The peripheral compartment is the abluminal hollow fibers space that is also enclosed by the plastic, while the intraluminal space and flow path form the central compartment. […]"}, "M. avium": {"test_system": "M. avium", "experiment": "MIC of antibiotics by broth microdilution, M. avium strains of Examples 3 and 4", "assay_type": "cell-based, Mycobacterium avium subsp. hominissuis", "conditions": "7H10 agar plates for tissue CFU counts", "method": "Susceptibility testing was conducted using broth microdilution single and twofold dilutions as described in the literature. Suspensions were prepared by swabs on a growth plate with a sterile cotton swab, or were prepared in broth culture. The growth was transferred to a 4.5 mL of phosphate buffer solution (PBS) until the turbidity matched the density of a 0.5 McFarland standard. Suspensions were then vigorously mixed on a vortex mixer for 15 to 20 seconds. The final inoculum was prepared to a bacterial density of 10^5. The tube was inverted 8-10 times to mix the suspension.\nFollowing both the four-week and eight-week treatment period, mice were sacrificed, and lungs and spleens were harvested for CFU counts in each tissue and compared to CFUs recovered in the baseline and vehicle-treated groups. Tissue samples were plated with and without antibiotic on 7H10 agar. Antibiotic plates were made with minimum inhibitory concentrations (MICs) of 8 μg/ml for clarithromycin, and 0.25, μg/ml for both rifabutin (RFB) and clofazimine (CFZ). Plates were made for each of clarithromycin (CLR) alone, clarithromycin plus either rifabutin (CLR+RFB) or clofazimine (CLR+CFZ) and the three-drug combination (CLR+RFB+CFZ). All plates were incubated in a microbiological incubator at 37° C. for 14 days."}, "M. avium 104 biofilm": {"test_system": "M. avium 104 biofilm", "experiment": "In vitro biofilm model of infection", "assay_type": "cell-based, Mycobacterium avium subsp. hominissuis", "conditions": "mean ± SD; CLR 1.9-4.3 μg/mL, RFB 0.04 μg/mL, CFZ 0.0005 μg/mL"}, "MAC [3]": {"test_system": "MAC", "experiment": "Lung histopathology of mice infected with MAC and treated for four and eight weeks", "assay_type": "in vivo, Mycobacterium avium complex", "conditions": "32 sections per group", "from_the_text": "Lung and Spleen Histopathology of Mice Infected with MAC and Treated with FDC Components Alone and in Combination for Four and Eight Weeks of Treatment\nEach of the experimental group had eight cut examined from each lung (8×2 lungs=16×2 mice=32 sections). Lungs were normal and not showing any pathology at pre-infection."}, "[4]": {"experiment": "7-day mouse tolerability and PK study", "conditions": "for Cavg (clofazimine): AUCtlast/24 h; for AUC(0-t): AUCtlast (clofazimine); for AUC(0-t) / Cmax: mouse plasma; for Cmax: Cmax (clofazimine)", "method": "Sixty (60) female mice were tested, 12 per treatment groups: […]"}, "[5]": {"experiment": "Concentration vs. QTcF analysis of MAP Study data (linear mixed-effects model)", "assay_type": "in vivo, human", "method": "A concentration vs. QTcF analysis was performed on a subset of data from the MAP Study where the PK sample was drawn within 1 hour of ECG extraction. The rationale for this window was based primarily on the assumption that at least for the rifabutin and clofazimine components, the long half-life would result in modest fluctuation of concentration over the dosing interval and thus the concentrations used in the analysis would enable fitting of a linear model suitable for prediction of the effect at the maximum concentration for each component (Cmax). Initially, a full model (including clarithromycin, 14-OH-clarithromycin, rifabutin, 25-O-desacetyl-rifabutin, and clofazimine) with random intercept and slopes per subject was fit and an unstructured covariance structure was used. […] Several models were then assessed with the best model retained, where only clofazimine concentration was retained as the drug component predictor of QT response.\nThe relationship between the individually observed clofazimine plasma concentrations and estimated placebo-adjusted ΔQTcF (i.e., ΔΔQTcF) is shown in FIG. 9. The solid line and the dotted line denotes the model-predicted mean ΔΔQTcF with 90% CI. The squares and circles denote the pairs of observed clofazimine plasma concentrations and estimated placebo-adjusted ΔQTcF by subjects for the RHB-104 and placebo treatment groups, respectively. […]"}, "NTM": {"test_system": "NTM", "conditions": "mouse models of systemic and lung infection; preclinical literature; cited from earlier work"}, "[6]": {"conditions": "cited from earlier work; for airway concentration relative to plasma (ELF:plasma ratio as percent): Dheda et al. 2018"}, "[7]": {"conditions": "female, C57BL/6, mouse, plasma, po, 10 mg/kg, Day 1, CFZ 10 mg/kg alone, oral"}, "[8]": {"conditions": "female, C57BL/6, mouse, plasma, po, 10 mg/kg, Day 7, CFZ 10 mg/kg alone, oral once daily"}, "[9]": {"conditions": "female, C57BL/6, mouse, plasma, po, 30 mg/kg, Day 1, CFZ 30 mg/kg alone, oral"}, "[10]": {"conditions": "female, C57BL/6, mouse, plasma, po, 30 mg/kg, Day 7, CFZ 30 mg/kg alone, oral once daily"}, "[11]": {"conditions": "female, C57BL/6, mouse, plasma, po, 30 mg/kg, Day 7, CFZ 30 mg/kg with CLR 200 mg/kg and RFB 60 mg/kg, oral once daily"}}, "note": "Entries after “also recorded” stand apart in the source; their conditions may differ. Read-outs that look alike come from different tables or passages of the source."}
{"smiles": "CC(C)/N=c1\\cc2n(-c3ccc(Cl)cc3)c3ccccc3nc-2cc1Nc1ccc(Cl)cc1", "note": "[Clofazimine, clofazimine]", "values": [{"measurement": "activity as single drugs", "setting": "MAC bacteria", "value": "bacteriostatic activity"}, {"measurement": "MIC", "setting": "MAC [1]; Clinical strain #1", "value": 0.25, "unit": "µg/mL"}, {"measurement": "MIC", "setting": "MAC [1]; Clinical strain #2", "value": 0.25, "unit": "µg/mL"}, {"measurement": "MIC", "setting": "MAC [1]; Clinical strain #3", "value": 0.25, "unit": "µg/mL"}, {"measurement": "MIC", "setting": "MAC [1]; Clinical strain #4", "value": 0.25, "unit": "µg/mL"}, {"measurement": "MIC", "setting": "MAC [1]; Clinical strain #5", "value": 0.25, "unit": "µg/mL"}, {"measurement": "effect on CFUs / MAC killing, summary", "setting": "[2]", "value": "CFU counts increased"}, {"measurement": "minimum inhibitory concentrations (MICs) used for antibiotic plates", "setting": "M. avium", "value": 0.25, "unit": "µg/mL"}, {"measurement": "Colony Forming Unit Concentration, Four Days", "setting": "M. avium 104 biofilm", "value": "1.91 ± 0.6 × 10^7 CFU/mL"}, {"measurement": "Colony Forming Unit Concentration, Seven Days", "setting": "M. avium 104 biofilm", "value": "1.42 ± 0.5 × 10^7 CFU/mL"}, {"measurement": "Lung Histopathology Findings", "setting": "MAC [3]", "value": "Mild diffuse congestion; also recorded: Minimal multi-focus congestion of lymphocytes and plasma cells; also recorded: Granulomas in multiple locations with mild number of bacteria; also recorded: Infiltrates into the bronchiolar walls"}, {"measurement": "Cavg (clofazimine)", "setting": "[4]; Day 7, CFZ 10 mg/kg alone", "value": 223, "unit": "ng/mL"}, {"measurement": "Cavg (clofazimine)", "setting": "[4]; Day 7, CFZ 30 mg/kg alone", "value": 411, "unit": "ng/mL"}, {"measurement": "Cavg (clofazimine)", "setting": "[4]; Day 7, CFZ 30 mg/kg with CLR 200 mg/kg and RFB 60 mg/kg", "value": 829, "unit": "ng/mL"}, {"measurement": "Tmax", "setting": "[4]; female, C57BL/6, mouse, in vivo, po, 10 mg/kg, tmax (clofazimine)", "value": 4, "unit": "h"}, {"measurement": "AUC(0-t)", "setting": "[4]; female, C57BL/6, mouse, in vivo, po, 30 mg/kg, Day 1, CFZ 30 mg/kg with CLR 200 mg/kg and RFB 60 mg/kg, oral", "value": 2230, "unit": "ng·h/mL"}, {"measurement": "AUC(0-t)", "setting": "[4]; [7]", "value": 2150, "unit": "ng·h/mL"}, {"measurement": "AUC(0-t)", "setting": "[4]; [8]", "value": 5340, "unit": "ng·h/mL"}, {"measurement": "Cmax", "setting": "[4]; [7]", "value": 108, "unit": "ng/mL"}, {"measurement": "Cmax", "setting": "[4]; [8]", "value": 277, "unit": "ng/mL"}, {"measurement": "AUC(0-t)", "setting": "[4]; [9]", "value": 3690, "unit": "ng·h/mL"}, {"measurement": "AUC(0-t)", "setting": "[4]; [10]", "value": 9870, "unit": "ng·h/mL"}, {"measurement": "AUC(0-t)", "setting": "[4]; [11]", "value": 19900, "unit": "ng·h/mL"}, {"measurement": "Cmax", "setting": "[4]; [9]", "value": 181, "unit": "ng/mL"}, {"measurement": "Cmax", "setting": "[4]; female, C57BL/6, mouse, plasma, po, 30 mg/kg, Day 1, CFZ 30 mg/kg with CLR 200 mg/kg and RFB 60 mg/kg, oral", "value": 152, "unit": "ng/mL"}, {"measurement": "Cmax", "setting": "[4]; [10]", "value": 460, "unit": "ng/mL"}, {"measurement": "Cmax", "setting": "[4]; [11]", "value": 957, "unit": "ng/mL"}, {"measurement": "treatment effect-specific intercept", "setting": "[5]; 90% CI 0.76 to 4.29", "value": 2.52, "unit": "ms"}, {"measurement": "estimated population slope of the concentration-QTc relationship", "setting": "[5]; clofazimine plasma concentration, RHB-104 MAP Study, 90% CI 0.0337 to 0.0410", "value": 0.037, "unit": "ms per ng/mL"}, {"measurement": "Effective Dose", "setting": "NTM", "value": 20, "unit": "mg/kg/day"}, {"measurement": "airway concentration relative to plasma (ELF:plasma ratio as percent)", "setting": "[6]", "value": "approximately 0.19%"}, {"measurement": "airway concentration relative to plasma (ELF:plasma ratio as percent)", "setting": "[6]; listed as CFZ", "value": "approximately 0.2%"}, {"measurement": "ELF:plasma ratio", "setting": "[6]; epithelial lining fluid to total plasma/serum", "value": 0.0019}, {"measurement": "half-life", "setting": "[6]; human, in vivo", "value": "> 100", "unit": "days"}]}
